How the values were obtained:
[1] = target: T1, orexin-2 receptor (hOX2R) (Homo sapiens, UniProt O43614); experiment: Measurement of orexin antagonistic activity (intracellular Ca2+ fluorescence, FDSS) on hOX2R; format: cell-based; settings: CHO cells forcibly expressing hOX2R; Fluo-4AM; ligand peptide (substituted human orexin-A) 3 nM; compound preincubated 30 minutes; read-out: IC50 Value OX2
T1 construct: expressed in transfected cells; host or cells: Chinese hamster ovary (CHO) cells
T1 sequence (O43614 1-444): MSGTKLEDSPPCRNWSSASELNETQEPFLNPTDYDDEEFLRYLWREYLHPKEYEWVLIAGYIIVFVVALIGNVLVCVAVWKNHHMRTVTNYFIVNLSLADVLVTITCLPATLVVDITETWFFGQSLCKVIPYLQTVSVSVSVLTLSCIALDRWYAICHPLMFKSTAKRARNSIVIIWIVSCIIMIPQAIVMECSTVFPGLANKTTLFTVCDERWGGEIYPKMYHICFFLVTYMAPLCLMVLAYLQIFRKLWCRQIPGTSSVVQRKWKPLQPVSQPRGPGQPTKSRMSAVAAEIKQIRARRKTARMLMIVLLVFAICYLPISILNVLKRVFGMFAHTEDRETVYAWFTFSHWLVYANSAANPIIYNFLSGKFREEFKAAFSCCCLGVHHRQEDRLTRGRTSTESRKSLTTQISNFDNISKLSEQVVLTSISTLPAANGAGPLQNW
Outline: (§1)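 CHO cells stably expressing hOX1R or hOX2R, loaded with 0.5 μM Fluo-4AM in HEPES/HBSS buffer with 0.1% BSA and 2.5 mM probenecid, pH 7.4, then preincubated 30 min with compound. Fluorescence recorded each second for 3 min by FDSS; maximum intensity taken as intracellular Ca2+ indicator of antagonism.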

[2] = target: T2, human orexin-1 receptor (hOX1R) (Homo sapiens, UniProt O43613); experiment: Measurement of orexin antagonistic activity (intracellular Ca2+ fluorescence, FDSS) on hOX1R; format: cell-based; settings: CHO cells forcibly expressing hOX1R; Fluo-4AM; ligand peptide (substituted human orexin-A) 300 pM; compound preincubated 30 minutes; read-out: IC50 Value OX1
T2 construct: expressed in transfected cells; host or cells: Chinese hamster ovary (CHO) cells
T2 sequence (O43613 1-425): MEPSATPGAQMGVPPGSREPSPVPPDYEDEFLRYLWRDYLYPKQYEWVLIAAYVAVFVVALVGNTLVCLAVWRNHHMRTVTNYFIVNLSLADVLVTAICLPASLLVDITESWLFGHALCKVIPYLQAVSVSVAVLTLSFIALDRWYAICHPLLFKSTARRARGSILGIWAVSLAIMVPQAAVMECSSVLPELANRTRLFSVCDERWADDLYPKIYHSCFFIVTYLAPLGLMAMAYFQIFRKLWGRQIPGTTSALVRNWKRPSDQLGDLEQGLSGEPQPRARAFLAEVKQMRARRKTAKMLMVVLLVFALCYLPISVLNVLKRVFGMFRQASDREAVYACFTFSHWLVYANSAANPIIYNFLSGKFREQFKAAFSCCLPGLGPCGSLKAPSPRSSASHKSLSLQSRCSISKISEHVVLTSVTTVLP
Outline: as §1

Row | Compound | IC50 [1] [nM] | IC50 [2] [nM]
1 | CCN(C(=O)c1cc(C)ccc1-n1nccn1)[C@@H](C)Cn1nnc(-c2ccc(F)cn2)n1 [Example 85, N-Ethyl-N-{(2S)-1-[5-(5-fluoropyridin-2-yl)-2H-tetrazol-2-yl]propan-2-yl}-5-methyl-2-(2H-1,2,3-triazol-2-yl)benzamide] | 27.5 | 1.3
2 | CCN(C(=O)c1nc(C)ccc1-n1nccn1)[C@@H](C)Cn1nnc(-c2ccc(F)cn2)n1 [Example 86, N-Ethyl-N-{(2S)-1-[5-(5-fluoropyridin-2-yl)-2H-tetrazol-2-yl]propan-2-yl}-6-methyl-3-(2H-1,2,3-triazol-2-yl)pyridine-2-carboxamide] | 1030 | 37.7
3 | CCN(C(=O)c1cc(F)ccc1-n1nccn1)[C@@H](C)Cn1nnc(-c2ccc(F)cn2)n1 [Example 87, N-Ethyl-5-fluoro-N-{(2S)-1-[5-(5-fluoropyridin-2-yl)-2H-tetrazol-2-yl]propan-2-yl}-2-(2H-1,2,3-triazol-2-yl)benzamide] | 283 | 9.8
4 | CCN(C(=O)c1cc(C)ccc1-c1ncccn1)[C@@H](C)Cn1nnc(-c2ccc(F)cn2)n1 [Example 88, N-Ethyl-N-{(2S)-1-[5-(5-fluoropyridin-2-yl)-2H-tetrazol-2-yl]propan-2-yl}-5-methyl-2-(pyrimidin-2-yl)benzamide] | 41.2 | 13.4
5 | Cc1ccc(-n2nccn2)c(C(=O)N(CCN(C)C)[C@@H](C)Cn2cc(-c3ccc(F)cc3)nn2)c1 [Example 89, N-[2-(Dimethylamino)ethyl]-N-{(2S)-1-[4-(4-fluorophenyl)-1H-1,2,3-triazol-1-yl]propan-2-yl}-5-methyl-2-(2H-1,2,3-triazol-2-yl)benzamide] | 6930 | 229
6 | Cc1ccc(-n2nccn2)c(C(=O)N(CCS(C)(=O)=O)[C@@H](C)Cn2cc(-c3ccc(F)cc3)nn2)c1 [Example 90, N-{(2S)-1-[4-(4-Fluorophenyl)-1H-1,2,3-triazol-1-yl]propan-2-yl}-5-methyl-N-[2-(methylsulfonyl)ethyl]-2-(2H-1,2,3-triazol-2-yl)benzamide] | 2070 | 23.7
7 | Cc1ccc(-n2nccn2)c(C(=O)N(CCC#N)[C@@H](C)Cn2cc(-c3ccc(F)cc3)nn2)c1 [Example 91, N-(2-Cyanoethyl)-N-{(2S)-1-[4-(4-fluorophenyl)-1H-1,2,3-triazol-1-yl]propan-2-yl}-5-methyl-2-(2H-1,2,3-triazol-2-yl) benzamide] | 279 | 203
8 | CCN(C(=O)c1cc(C)ccc1-n1nccn1)[C@@H](C)Cn1cc(-c2ccc(Cl)cc2)nn1 [Example 92, N-{(2S)-1-[4-(4-Chlorophenyl)-1H-1,2,3-triazol-1-yl]propan-2-yl}-N-ethyl-5-methyl-2-(2H-1,2,3-triazol-2-yl)benzamide] | 64.6 | 2.5
9 | CCN(C(=O)c1cc(C)ccc1-n1nccn1)[C@@H](C)Cn1cc(-c2cccc(O)c2)nn1 [Example 93, N-Ethyl-N-{(2S)-1-[4-(3-hydroxyphenyl)-1H-1,2,3-triazol-1-yl]propan-2-yl}-5-methyl-2-(2H-1,2,3-triazol-2-yl)benzamide] | 7.4 | 1.4
10 | CCN(C(=O)c1cc(C)ccc1-n1nccn1)[C@@H](C)Cn1cc(-c2ccccn2)nn1 [Example 94, N-Ethyl-5-methyl-N-{(2S)-1-[4-(pyridin-2-yl)-1H-1,2,3-triazol-1-yl]propan-2-yl}-2-(2H-1,2,3-triazol-2-yl) benzamide] | 108 | 9.3
11 | CCN(C(=O)c1cc(C)ccc1-n1nccn1)[C@@H](C)Cn1cc(-c2ccccc2)nn1 [Example 95, N-Ethyl-5-methyl-N-[(2S)-1-(4-phenyl-1H-1,2,3-triazol-1-yl)propan-2-yl]-2-(2H-1,2,3-triazol-2-yl)benzamide] | 17.7 | 0.6
12 | CCN(C(=O)c1cc(C)ccc1-n1nccn1)[C@@H](C)Cn1cc(-c2ccc(OC)cc2)nn1 [Example 96, N-Ethyl-N-{(2S)-1-[4-(4-methoxyphenyl)-1H-1,2,3-triazol-1-yl]propan-2-yl}-5-methyl-2-(2H-1,2,3-triazol-2-yl)benzamide] | 8370 | 160

Now from value to compound:

Row | IC50 [1] [nM] | IC50 [2] [nM] | Compound
13 | 21.3 | 2.4 | CCN(C(=O)c1cc(C)ccc1-n1nccn1)[C@@H](C)Cn1cc(-c2cccc(C)c2)nn1 [Example 97, N-Ethyl-5-methyl-N-{(2S)-1-[4-(3-methylphenyl)-1H-1,2,3-triazol-1-yl]propan-2-yl}-2-(2H-1,2,3-triazol-2-yl) benzamide]
14 | 9.8 | 6.3 | CCN(C(=O)c1cc(C)ccc1-n1nccn1)[C@@H](C)Cn1cc(-c2cccc(F)c2)nn1 [Example 98, N-Ethyl-N-{(2S)-1-[4-(3-fluorophenyl)-1H-1,2,3-triazol-1-yl]propan-2-yl}-5-methyl-2-(2H-1,2,3-triazol-2-yl) benzamide]
15 | 1.5 | 1.8 | CCN(C(=O)c1cc(C)ccc1-n1nccn1)[C@@H](C)Cn1cc(-c2ccc(F)c(OC)c2)nn1 [Example 99, N-Ethyl-N-{(2S)-1-[4-(4-fluoro-3-methoxyphenyl)-1H-1,2,3-triazol-1-yl]propan-2-yl}-5-methyl-2-(2H-1,2,3-triazol-2-yl)benzamide]
16 | 774 | 10.4 | CCN(C(=O)c1cc(C)ccc1-n1nccn1)[C@@H](C)Cn1cc(-c2ccc(O)cc2)nn1 [Example 100, N-Ethyl-N-{(2S)-1-[4-(4-hydroxyphenyl)-1H-1,2,3-triazol-1-yl]propan-2-yl}-5-methyl-2-(2H-1,2,3-triazol-2-yl)benzamide]
17 | 1.5 | 0.9 | CCN(C(=O)c1cc(C)ccc1-n1nccn1)[C@@H](C)Cn1cc(-c2cccc(OC)c2)nn1 [Example 101, N-Ethyl-N-{(2S)-1-[4-(3-methoxyphenyl)-1H-1,2,3-triazol-1-yl]propan-2-yl}-5-methyl-2-(2H-1,2,3-triazol-2-yl)benzamide]
18 | 27.9 | 1.4 | Cc1ccc(-n2nccn2)c(C(=O)N(CC(C)O)[C@@H](C)Cn2cc(-c3ccc(F)cc3)cn2)c1 (stereo partly drawn) [Example 102, N-{(2S)-1-[4-(4-Fluorophenyl)-1H-pyrazol-1-yl]propan-2-yl}-N-(2-hydroxypropyl)-5-methyl-2-(2H-1,2,3-triazol-2-yl)benzamide]

From US20150166523A1, “BRANCHED CHAIN ALKYL HETEROAROMATIC RING DERIVATIVE” (TAISHO PHARMACEUTICAL CO., LTD., priority 2012, published 2015)
